The text below walks through data of US12552825B2 (Zikani Therapeutics, Inc., priority 2019, dated 2026).

Values after ≈ are worked out from the molar mass of the structure shown.

Common to all, as to type: cell-based
Assay [1] concerns S. aureus MP-12. Briefly: microbe, parasite or virus in culture. The note with it: Staphylococcus aureus, MP12, read-out: MIC S. aureus MP-12.
For assay [2], the system named is E. coli MP-4. Briefly: MIC determination by CLSI broth dilution, E. coli MP-4. The note with it: strain MP-4; for MIC: Escherichia coli, MP4, CLSI broth dilution. A general note: In broth dilution the organism is exposed to a series of concentrations in liquid medium.
The subject of assay [3] is K. pneumoniae MP-546. Briefly: MIC determination by CLSI broth dilution, K. pneumoniae MP-546. The note with it: strain MP-546; for MIC: Klebsiella pneumoniae, MP546, CLSI broth dilution.
Assay [4] relates to K. pneumoniae MP-648. The experiment in a line: MIC determination by CLSI broth dilution, K. pneumoniae MP-648. The note with it: strain MP-648; for MIC: Klebsiella pneumoniae, MP648, CLSI broth dilution.
In assay [5] the test system is P. aeruginosa MP-3. The experiment in a line: MIC determination by CLSI broth dilution, P. aeruginosa MP-3. The note with it: for MIC: Pseudomonas aeruginosa, MP3, strain MP-3.
The test system of assay [6] is A. baumannii MP-15. Briefly: MIC determination by CLSI broth dilution, A. baumannii MP-15. The note with it: for MIC: Acinetobacter baumannii, MP15, strain MP-15, read-out: MIC A. baumanii MP-15.

`CCCN1CC(C[C@H]2COC(=O)C(C)(C)C(=O)[C@H](C)[C@@H](O[C@@H]3O[C@H](C)C[C@H](N(C)C)[C@H]3O)[C@](C)(OC)C[C@@H](C)CN2C)C1` [Compound 79]: the MIC in assay [1] was above 32 µg/mL; in assay [2], 4 to 32 µg/mL (≈ 6.54 to 52.3 µM); in assay [3], above 32 µg/mL; in assay [4], above 32 µg/mL; in assay [5], above 32 µg/mL; in assay [6], above 32 µg/mL.

Turning to `CO[C@]1(C)C[C@@H](C)CN(C)[C@H](CCCN2CCC(F)CC2)COC(=O)C(C)(C)C(=O)[C@H](C)[C@H]1O[C@@H]1O[C@H](C)C[C@H](N(C)C)[C@H]1O` [Compound 85, (3R,6R,8R,9R,10R)-9-(((2S,3R,4S,6R)-4-(dimethylamino)-3-hydroxy-6-methyltetrahydro-2H-pyran-2-yl)oxy)-3-(3-(4-fluoropiperidin-1-yl)propyl)-8-methoxy-4,6,8,10,12,12-hexamethyl-1-oxa-4-azacyclotridecane-11,13-dione], the MIC in assay [1] was below 4 µg/mL; in assay [2], below 4 µg/mL; in assay [3], below 4 µg/mL; in assay [4] it was below 4 µg/mL; in assay [5], above 32 µg/mL; in assay [6], above 32 µg/mL.

As for `CCN(C)CC[C@@H](O)[C@@H]1COC(=O)C(C)(C)C(=O)[C@H](C)[C@@H](O[C@@H]2O[C@H](C)C[C@H](N(C)C)[C@H]2O)[C@](C)(OC)C[C@@H](C)CN1CC` [Compound 168], the MIC is 4 to 32 µg/mL (≈ 6.35 to 50.8 µM) in assay [1]; below 4 µg/mL in assay [2]; 4 to 32 µg/mL (≈ 6.35 to 50.8 µM) in assay [3]; below 4 µg/mL in assay [4]; above 32 µg/mL in assay [5]; above 32 µg/mL in assay [6].

Take `CCCN1CCC(=C[C@@H]2COC(=O)C(C)(C)C(=O)[C@H](C)[C@@H](O[C@@H]3O[C@H](C)C[C@H](N(C)C)[C@H]3O)[C@](C)(OC)C[C@@H](C)CN2C)CC1` [Compound 149]: the MIC in assay [1] is below 4 µg/mL; in assay [2], below 4 µg/mL; in assay [3], below 4 µg/mL; in assay [4] it was below 4 µg/mL; in assay [5] it was above 32 µg/mL; in assay [6], above 32 µg/mL.

Turning to `CCCN1CCC(CC[C@@H]2COC(=O)C(C)(C)C(=O)[C@H](C)[C@@H](O[C@@H]3O[C@H](C)C[C@H](N(C)C)[C@H]3O)[C@](C)(OC)C[C@@H](C)CN2C)CC1` [Compound 75], the MIC in assay [1] was above 32 µg/mL; in assay [2] it was 4 to 32 µg/mL (≈ 6.12 to 48.9 µM); in assay [3], above 32 µg/mL; in assay [4], above 32 µg/mL; in assay [5] it was above 32 µg/mL; in assay [6], above 32 µg/mL.

As to `CCN1C[C@H](C)C[C@@](C)(OC)[C@H](O[C@@H]2O[C@H](C)C[C@H](N(C)C)[C@H]2O)[C@@H](C)C(=O)C(C)(C)C(=O)OC[C@@H]1CCCN(C)C(C)C` [Compound 10, (3S,6R,8R,9R,10R)-9-(((2S,3R,4S,6R)-4-(dimethylamino)-3-hydroxy-6-methyltetrahydro-2H-pyran-2-yl)oxy)-4-ethyl-3-(3-(isopropyl(methyl)amino)propyl)-8-methoxy-6,8,10,12,12-pentamethyl-1-oxa-4-azacyclotridecane-11,13-dione], the MIC is below 4 µg/mL in assay [1]; below 4 µg/mL in assay [2]; below 4 µg/mL in assay [3]; below 4 µg/mL in assay [4]; above 32 µg/mL in assay [5]; above 32 µg/mL in assay [6].

Turning to `CO[C@]1(C)C[C@@H](C)CN(C)[C@@H](CCCN(C)C2CCCC2)COC(=O)C(C)(C)C(=O)[C@H](C)[C@H]1O[C@@H]1O[C@H](C)C[C@H](N(C)C)[C@H]1O` [Compound 99, (3S,6R,8R,9R,10R)-3-(3-(cyclopentyl(methyl)amino)propyl)-9-(((2S,3R,4S,6R)-4-(dimethylamino)-3-hydroxy-6-methyltetrahydro-2H-pyran-2-yl)oxy)-8-methoxy-4,6,8,10,12,12-hexamethyl-1-oxa-4-azacyclotridecane-11,13-dione], the MIC in assay [1] was 4 to 32 µg/mL (≈ 6.25 to 50 µM); in assay [2], below 4 µg/mL; in assay [3], below 4 µg/mL; in assay [4] it was below 4 µg/mL; in assay [5] it was above 32 µg/mL; in assay [6], above 32 µg/mL.

Take `CO[C@]1(C)C[C@@H](C)CN(C)[C@H](CCC2CCN(CC(C)C)CC2)COC(=O)C(C)(C)C(=O)[C@H](C)[C@H]1O[C@@H]1O[C@H](C)C[C@H](N(C)C)[C@H]1O` [Compound 76]: the MIC in assay [1] is above 32 µg/mL; in assay [2], below 4 µg/mL; in assay [3] it was 4 to 32 µg/mL (≈ 5.99 to 47.9 µM); in assay [4] it was 4 to 32 µg/mL (≈ 5.99 to 47.9 µM); in assay [5], above 32 µg/mL; in assay [6], above 32 µg/mL.

`CCN1C[C@H](C)C[C@@](C)(OC)[C@H](O[C@@H]2O[C@H](C)C[C@H](N(C)C)[C@H]2O)[C@@H](C)C(=O)C(C)(C)C(=O)OC[C@@H]1CCCN1CCCC1` [Compound 87, (3S,6R,8R,9R,10R)-9-(((2S,3R,4S,6R)-4-(dimethylamino)-3-hydroxy-6-methyltetrahydro-2H-pyran-2-yl)oxy)-4-ethyl-8-methoxy-6,8,10,12,12-pentamethyl-3-(3-(pyrrolidin-1-yl)propyl)-1-oxa-4-azacyclotridecane-11,13-dione]: the MIC in assay [1] is below 4 µg/mL; in assay [2], below 4 µg/mL; in assay [3], below 4 µg/mL; in assay [4], below 4 µg/mL; in assay [5] it was above 32 µg/mL; in assay [6] it was above 32 µg/mL.

Consider `CCCN1C[C@H](C)C[C@@](C)(OC)[C@H](O[C@@H]2O[C@H](C)C[C@H](N(C)C)[C@H]2O)[C@@H](C)C(=O)C(C)(C)C(=O)OC[C@H]1CCCN1Cc2ccccc2C1` [Compound 145, (3R,6R,8R,9R,10R)-9-(((2S,3R,4S,6R)-4-(dimethylamino)-3-hydroxy-6-methyltetrahydro-2H-pyran-2-yl)oxy)-3-(3-(isoindolin-2-yl)propyl)-8-methoxy-6,8,10,12,12-pentamethyl-4-propyl-1-oxa-4-azacyclotridecane-11,13-dione], for which the MIC is below 4 µg/mL in assay [1]; below 4 µg/mL in assay [2]; below 4 µg/mL in assay [3]; below 4 µg/mL in assay [4]; below 4 µg/mL in assay [5]; above 32 µg/mL in assay [6].

`CCC(CCNCC(C)C)C[C@@H]1COC(=O)C(C)(C)C(=O)[C@H](C)[C@@H](O[C@@H]2O[C@H](C)C[C@H](N(C)C)[C@H]2O)[C@](C)(OC)C[C@@H](C)CN1C` (some centres unmarked) [Compound 53]: the MIC in assay [1] is 4 to 32 µg/mL (≈ 6.1 to 48.8 µM); in assay [2], below 4 µg/mL; in assay [3] it was below 4 µg/mL; in assay [4] it was below 4 µg/mL; in assay [5] it was above 32 µg/mL; in assay [6], above 32 µg/mL.

Consider `CCN1C[C@H](C)C[C@@](C)(OC)[C@H](O[C@@H]2O[C@H](C)C[C@H](N(C)C)[C@H]2O)[C@@H](C)C(=O)C(C)(C)C(=O)OC[C@H]1[C@@H](CCN1CCCC1)OC` [Compound 147], for which the MIC was 4 to 32 µg/mL (≈ 6.1 to 48.8 µM) in assay [1]; below 4 µg/mL in assay [2]; 4 to 32 µg/mL (≈ 6.1 to 48.8 µM) in assay [3]; 4 to 32 µg/mL (≈ 6.1 to 48.8 µM) in assay [4]; above 32 µg/mL in assay [5]; above 32 µg/mL in assay [6].

For `C=C(C)C[C@]1(C)C(=O)OC[C@@H](CC2CCN(CCCCCCC)CC2)N(C)C[C@H](C)C[C@@](C)(OC)[C@H](O[C@@H]2O[C@H](C)C[C@H](N(C)C)[C@H]2O)[C@@H](C)C1=O` [Compound 175], the “MIC E. coli MP-4” value in assay [2] (CLSI broth dilution) is listed as “+++ (values less than or equal to 4 mg/L)”. Moreover, in assay [3] (CLSI broth dilution), the “MIC K. pneumoniae MP-546” value was “++ (values of greater than 4 mg/L and less than or equal to 32 mg/L)”. Besides, the “MIC K. pneumoniae MP-648” value in assay [4] (CLSI broth dilution) is “+ (values greater than 32 mg/L)”. Besides, in assay [5] (strain MP-3), the “MIC P aeruginosa MP-3” value was “+ (values greater than 32 mg/L)”. Moreover, the “MIC A. baumanii MP-15” value in assay [6] (strain MP-15) is reported as “+ (values greater than 32 mg/L)”.
